Reference: PubChem BioAssay AID248 (DTP/NCI, 2004)
Toxic doses and inconclusive results are not listed. No stated cut-off is given here; in the data, active means T/C of 150% or more; inactive means T/C below 125%.

Tested on: L1210 leukemia ip in BDF1 mice, survival T/C
Experiment: NCI In Vivo Anticancer Drug Screen. Data for tumor model L1210 Leukemia (intraperitoneal) in B6D2F1 (BDF1) mice
Conditions: endpoint: mean survival time, higher = longer survival
How it was run: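 Survival endpoint. Drug-treated group vs vehicle group, expressed as T divided by C. Tumor passaged by transplantation.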

[1] = dose: 100.0 mg/kg/injection, schedule: Q01DX001 (ip), vehicle: carboxymethylcellulose (CMC)
[2] = dose: 200.0 mg/kg/injection, schedule: Q01DX001 (ip), vehicle: carboxymethylcellulose (CMC)
[3] = dose: 400.0 mg/kg/injection, schedule: Q01DX001 (ip), vehicle: carboxymethylcellulose (CMC)
[4] = dose: 100.0 mg/kg/injection, schedule: Q01DX001 (ip), vehicle: saline
[5] = dose: 200.0 mg/kg/injection, schedule: Q01DX001 (ip), vehicle: saline
[6] = dose: 400.0 mg/kg/injection, schedule: Q01DX001 (ip), vehicle: saline
[7] = dose: 100.0 mg/kg/injection, schedule: Q04DX003 (ip), vehicle: saline with Tween-80
[8] = dose: 200.0 mg/kg/injection, schedule: Q04DX003 (ip), vehicle: saline with Tween-80
[9] = dose: 400.0 mg/kg/injection, schedule: Q04DX003 (ip), vehicle: saline with Tween-80
[10] = dose: 100.0 mg/kg/injection, schedule: Q01DX001 (ip), vehicle: other
[11] = dose: 200.0 mg/kg/injection, schedule: Q01DX001 (ip), vehicle: other
[12] = dose: 400.0 mg/kg/injection, schedule: Q01DX001 (ip), vehicle: other
[13] = dose: 100.0 mg/kg/injection, schedule: Q01DX009 (ip), vehicle: Klucel (hydroxypropylcellulose) (HPC)
[14] = dose: 200.0 mg/kg/injection, schedule: Q01DX009 (ip), vehicle: Klucel (hydroxypropylcellulose) (HPC)
[15] = dose: 400.0 mg/kg/injection, schedule: Q01DX009 (ip), vehicle: Klucel (hydroxypropylcellulose) (HPC)
[16] = dose: 50.0 mg/kg/injection, schedule: Q01DX009 (ip), vehicle: Klucel (hydroxypropylcellulose) (HPC)
[17] = dose: 100.0 mg/kg/injection, schedule: Q04DX003 (ip), vehicle: Klucel (hydroxypropylcellulose) (HPC)
[18] = dose: 200.0 mg/kg/injection, schedule: Q04DX003 (ip), vehicle: Klucel (hydroxypropylcellulose) (HPC)
[19] = dose: 50.0 mg/kg/injection, schedule: Q01DX001 (ip), vehicle: saline
[20] = dose: 50.0 mg/kg/injection, schedule: Q04DX003 (ip), vehicle: Klucel (hydroxypropylcellulose) (HPC)

Measured: T/C

O=c1ncccn1Cc1ccccc1
inactive: dose: 100.0 mg/kg/injection, schedule: Q01DX001 (ip), vehicle: Klucel (hydroxypropylcellulose) (HPC) 112 % of control | dose: 200.0 mg/kg/injection, schedule: Q01DX001 (ip), vehicle: Klucel (hydroxypropylcellulose) (HPC) 98 % of control | dose: 400.0 mg/kg/injection, schedule: Q01DX001 (ip), vehicle: Klucel (hydroxypropylcellulose) (HPC) 107 % of control

CC1=C(O)c2ccccc2C(=O)C1=O
inactive: dose: 50.0 mg/kg/injection, schedule: Q01DX Z (ip), vehicle: other 93 % of control

C#CC1(O)CCC2C3CCc4cc(OC)ccc4C3CCC21C (stereo not drawn)
inactive: dose: 10.0 mg/kg/injection, schedule: Q01DX009 (sc), vehicle: saline with Tween-80 102 % of control | dose: 100.0 mg/kg/injection, schedule: Q04DX003 (sc), vehicle: olive oil, sesame oil, peanut oil 102 % of control | dose: 200.0 mg/kg/injection, schedule: Q01DX009 (sc), vehicle: saline with Tween-80 98 % of control | dose: 200.0 mg/kg/injection, schedule: Q04DX003 (sc), vehicle: olive oil, sesame oil, peanut oil 102 % of control | dose: 400.0 mg/kg/injection, schedule: Q01DX009 (sc), vehicle: saline with Tween-80 96 % of control | dose: 400.0 mg/kg/injection, schedule: Q04DX003 (sc), vehicle: olive oil, sesame oil, peanut oil 100 % of control

CC(=O)N1Cc2ncnc(N)c2C1
inactive: [1] 101 % of control | [2] 95 % of control | [3] 101 % of control

COCC(O)C(OC)C(OC)C(N)C=O (stereo not drawn)
inactive: [4] 101 % of control | [5] 101 % of control | [6] 107 % of control

CCCCCCCCCCCCCCCCOc1ccc(C(=O)OC)cc1[N+](=O)[O-]
inactive: [7] 94 % of control | [8] 90 % of control | [9] 87 % of control

CCCC(Cc1cccs1)C(=O)O (stereo not drawn)
inactive: [10] 101 % of control | [11] 97 % of control | [12] 97 % of control

Oc1c(Br)cc(Br)cc1/C=N/c1nc(-c2ccccc2)cs1.Oc1c(Br)cc(Br)cc1/C=N/c1nc(-c2ccccc2)cs1.[Co]
inactive: [4] 93 % of control | [6] 86 % of control

Clc1ccc(C2CC3(CC(c4ccc(Cl)cc4)N2)SSC2(CC(c4ccc(Cl)cc4)NC(c4ccc(Cl)cc4)C2)S3)cc1 (stereo not drawn)
inactive: [13] 98 % of control | [14] 108 % of control | [15] 98 % of control

C=CCCN(c1ccc(C(=O)OCC)cc1)S(=O)(=O)c1ccc(C)cc1
inactive: dose: 50.0 mg/kg/injection, schedule: Q01DX001 (ip), vehicle: carboxymethylcellulose (CMC) 102 % of control | [1] 100 % of control | [2] 107 % of control | [3] 96 % of control

CN1CCN(Cc2c(O)ccc3c4c(c(=O)oc23)CCCC4)CC1
inactive: [1] 98 % of control | [2] 93 % of control

Nc1ncnc2c1ncn2CCCN1C(=O)c2ccccc2C1=O
inactive: [7] 96 % of control | [8] 93 % of control | [9] 89 % of control

CCCCNC(=O)OC
inactive: [16] 94 % of control | [13] 97 % of control | [17] 98 % of control | [14] 102 % of control | [18] 91 % of control

OC1C2(CCCCC2)CNC12C=CCCC2 (stereo not drawn)
inactive: dose: 75.0 mg/kg/injection, schedule: Q01DX001 (ip), vehicle: saline 98 % of control | dose: 150.0 mg/kg/injection, schedule: Q01DX001 (ip), vehicle: saline 97 % of control

N#CCCCCCl
inactive: dose: 6.0 mg/kg/injection, schedule: Q01DX009 (ip), vehicle: saline 103 % of control | dose: 12.0 mg/kg/injection, schedule: Q01DX009 (ip), vehicle: saline 105 % of control | dose: 12.0 mg/kg/injection, schedule: Q04DX003 (ip), vehicle: saline 97 % of control | dose: 25.0 mg/kg/injection, schedule: Q01DX009 (ip), vehicle: saline 103 % of control | dose: 25.0 mg/kg/injection, schedule: Q04DX003 (ip), vehicle: saline 96 % of control

COc1cccc(NN)c1
inactive: dose: 50.0 mg/kg/injection, schedule: Q01DX009 (ip), vehicle: saline 100 % of control | dose: 100.0 mg/kg/injection, schedule: Q04DX003 (ip), vehicle: saline 101 % of control

O=C1C=C(Nc2ccccc2)C(=O)C=C1Nc1ccccc1
inactive: [7] 86 % of control | [8] 86 % of control | [9] 86 % of control

CCN(CC)CCCNc1c2ccccc2nc2ccccc12
inactive: dose: 5.0 mg/kg/injection, schedule: Q01DX001 (ip), vehicle: saline 113 % of control | dose: 10.0 mg/kg/injection, schedule: Q01DX001 (ip), vehicle: saline 104 % of control | dose: 20.0 mg/kg/injection, schedule: Q01DX001 (ip), vehicle: saline 115 % of control | dose: 40.0 mg/kg/injection, schedule: Q01DX001 (ip), vehicle: saline 87 % of control

Cc1ccccc1SCCC(=O)O
inactive: [4] 100 % of control | [13] 92 % of control | [5] 87 % of control | [14] 96 % of control | [6] 87 % of control | [15] 94 % of control

CCN(CC)c1ccc(N(C(C)=O)C(C)=O)cc1
inactive: dose: 6.25 mg/kg/injection, schedule: Q01DX009 (ip), vehicle: saline with Tween-80 98 % of control | dose: 12.5 mg/kg/injection, schedule: Q01DX009 (ip), vehicle: saline with Tween-80 96 % of control | dose: 25.0 mg/kg/injection, schedule: Q01DX009 (ip), vehicle: saline with Tween-80 96 % of control

Cc1ccc(NC(=O)c2ccccc2-c2ccccc2C(=O)Nc2ccc(C)cc2)cc1
inactive: [10] 91 % of control

CC(C)(CO)N=Cc1ccccc1O.CC(C)(CO)N=Cc1ccccc1O.[Cu].[Cu]
inactive: dose: 75.0 mg/kg/injection, schedule: Q01DX001 (ip), vehicle: other 98 % of control | dose: 150.0 mg/kg/injection, schedule: Q01DX001 (ip), vehicle: other 96 % of control | dose: 300.0 mg/kg/injection, schedule: Q01DX001 (ip), vehicle: other 98 % of control

NCc1ccccn1
inactive: [4] 98 % of control | [6] 95 % of control

S=C(Nc1ccc(Cl)c(Cl)c1)Sc1ccccc1
inactive: dose: 50.0 mg/kg/injection, schedule: Q04DX003 (ip), vehicle: saline with Tween-80 95 % of control | [7] 91 % of control

COc1cccc(/C=N/N2CCN(/N=C/c3cccc(OC)c3OC)CC2)c1OC
inactive: [1] 94 % of control | [2] 98 % of control | [3] 100 % of control

CCSC(SCC)C(C)=O
inactive: [19] 92 % of control | [4] 108 % of control | [5] 94 % of control | [6] 89 % of control

Cc1n[nH]c(=S)nc1C
inactive: [19] 96 % of control | [20] 96 % of control | [4] 102 % of control | [17] 96 % of control | [5] 93 % of control | [18] 91 % of control

CCCC1c2ccccc2-c2ccc(C(C)=O)cc21 (stereo not drawn)
inactive: [1] 97 % of control | [2] 92 % of control | [3] 97 % of control

O=C(Nc1ccc(C(=O)c2ccccc2)cc1)c1ccc(C(=O)Nc2ccc(C(=O)c3ccccc3)cc2)cc1
inactive: [10] 93 % of control | [11] 86 % of control | [12] 89 % of control

CC(C)N(C(=O)Nc1cc([N+](=O)[O-])ccc1Cl)c1ccccc1
inactive: dose: 12.5 mg/kg/injection, schedule: Q01DX009 (ip), vehicle: Klucel (hydroxypropylcellulose) (HPC) 89 % of control | dose: 25.0 mg/kg/injection, schedule: Q01DX009 (ip), vehicle: Klucel (hydroxypropylcellulose) (HPC) 96 % of control | [16] 98 % of control

CCOC(=O)C1=CC=CC1=O
inactive: [7] 102 % of control | [8] 95 % of control | [9] 91 % of control

Nc1c(Cl)ncnc1Nc1ccc(O)cc1
inactive: dose: 25.0 mg/kg/injection, schedule: Q04DX003 (ip), vehicle: Klucel (hydroxypropylcellulose) (HPC) 96 % of control | [20] 96 % of control | [17] 101 % of control

N#CCCP(=O)(CCC#N)CCP(=O)(CCC#N)CCC#N
inactive: [7] 91 % of control | [8] 91 % of control | [9] 94 % of control

CC1(C)N=C(N)N=C(N)N1c1cccc(C(=O)O)c1
inactive: dose: 25.0 mg/kg/injection, schedule: Q01DX001 (ip), vehicle: saline 100 % of control | [19] 102 % of control | [4] 105 % of control
